Results taken from publication PMC6001238, “Iterative Chemical Engineering of Vancomycin Leads to Novel Vancomycin Analogs With a High in Vitro Therapeutic Index” (Frontiers in Microbiology, 2018).
In brackets after ≈: the same amount, converted by molar mass.

How the values were obtained:
[1] = test system: L1210, CEM and HeLa cell lines; assay: Cytostatic activity, average or summary over L1210, CEM and HeLa; format: cell-based; details: average of L1210, CEM and HeLa; read-out: Toxicity (IC50) Average
Outline: (§1)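 Test compounds, serially diluted, received an equal volume of cell suspension at 300,000–500,000 cells/mL. After 37°C incubation (2 days for L1210, 3 for CEM, 4 for HeLa), cells were enumerated by Coulter counting and 50%-inhibitory concentrations calculated per cell type.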

MRSA KS2 = assay: MIC, broth microdilution, MRSA KS2; format: cell-based, Staphylococcus aureus; details: for MIC-fold improvement vs. vancomycin: MRSA KS2, ratio of MIC of vancomycin and MIC of analogue; for MIC: Staphylococcus aureus MRSA KS2, read-out: MIC
Outline: (§2)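 Controls (ultrapure water; broth not inoculated) were included throughout CLSI-compliant broth microdilution. One condition supplemented analogue or comparator with 10 μM vancomycin, final level.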

MRSA KS1 = assay: MIC, broth microdilution, MRSA KS1; format: cell-based, Staphylococcus aureus; details: for MIC-fold improvement vs. vancomycin: MRSA KS1, ratio of MIC of vancomycin and MIC of analogue; for MIC: Staphylococcus aureus MRSA KS1, read-out: MIC
Outline: as §2

S. aureus VRSA = assay: MIC, broth microdilution, vancomycin-resistant S. aureus (VRSA); format: cell-based, Staphylococcus aureus; details: for MIC: Staphylococcus aureus VRSA, read-out: MIC; for MIC-fold improvement vs. vancomycin: VRSA, ratio of MIC of vancomycin and MIC of analogue
Outline: as §2

E. faecalis VRE 37 = assay: MIC, broth microdilution, vancomycin-resistant E. faecalis VRE 37 (VanA); format: cell-based, Enterococcus faecalis; details: for MIC: Enterococcus faecalis VRE 37 (vancomycin-resistant), read-out: MIC; for MIC-fold improvement vs. vancomycin: VRE 37, ratio of MIC of vancomycin and MIC of analogue
Outline: as §2

MRSA KS6 = assay: MIC, broth microdilution, MRSA KS6; format: cell-based, Staphylococcus aureus; details: for MIC-fold improvement vs. vancomycin: MRSA KS6, ratio of MIC of vancomycin and MIC of analogue; for MIC: Staphylococcus aureus MRSA KS6, read-out: MIC
Outline: as §2

[2] = test system: human cervix carcinoma (HeLa) cells; assay: Cytostatic activity, HeLa cell proliferation; format: cell-based; details: mean ± SD of three experiments; highest concentration tested 250 µM; 4 days; read-out: Toxicity (IC50) HeLa
Outline: as §1

E. faecalis VRE 53 = assay: MIC, broth microdilution, vancomycin-resistant E. faecalis VRE 53 (VanA); format: cell-based, Enterococcus faecalis; details: for MIC: Enterococcus faecalis VRE 53 (vancomycin-resistant), read-out: MIC; for MIC-fold improvement vs. vancomycin: VRE 53, ratio of MIC of vancomycin and MIC of analogue
Outline: as §2

E. faecalis VRE 6 = assay: MIC, broth microdilution, vancomycin-resistant E. faecalis VRE 6 (VanA); format: cell-based, Enterococcus faecalis; details: for MIC: Enterococcus faecalis VRE 6 (vancomycin-resistant), read-out: MIC; for MIC-fold improvement vs. vancomycin: VRE 6, ratio of MIC of vancomycin and MIC of analogue
Outline: as §2

[3] = test system: Murine leukemia (L1210) cells; assay: Cytostatic activity, L1210 cell proliferation; format: cell-based; details: mean ± SD of three experiments; highest concentration tested 250 µM; 2 days; read-out: Toxicity (IC50) L1210
Outline: as §1

S. aureus VISA/HIP5827 = assay: MIC, broth microdilution, vancomycin-intermediate S. aureus VISA HIP5827; format: cell-based, Staphylococcus aureus; details: for MIC: Staphylococcus aureus VISA/HIP5827, read-out: MIC; for MIC-fold improvement vs. vancomycin: VISA/HIP5827, ratio of MIC of vancomycin and MIC of analogue
Outline: as §2

[4] = test system: human T-lymphocyte (CEM) cells; assay: Cytostatic activity, CEM cell proliferation; format: cell-based; details: mean ± SD of three experiments; highest concentration tested 250 µM; 3 days; read-out: Toxicity (IC50) CEM
Outline: as §1

MRSA KS89 = assay: MIC, broth microdilution, MRSA KS89; format: cell-based, Staphylococcus aureus; details: for MIC-fold improvement vs. vancomycin: MRSA KS8, ratio of MIC of vancomycin and MIC of analogue; for MIC: Staphylococcus aureus MRSA KS8, read-out: MIC
Outline: as §2

E. faecalis VRE 29 = assay: MIC, broth microdilution, vancomycin-resistant E. faecalis VRE 29 (VanA); format: cell-based, Enterococcus faecalis; details: for MIC: Enterococcus faecalis VRE 29 (vancomycin-resistant), read-out: MIC; for MIC-fold improvement vs. vancomycin: VRE 29, ratio of MIC of vancomycin and MIC of analogue
Outline: as §2

[5] = test system: S. aureus VSSA (ATCC 6538); assay: MIC, broth microdilution, vancomycin-sensitive S. aureus (VSSA/MSSA, ATCC 6538); format: cell-based, Staphylococcus aureus; details: for MIC: Staphylococcus aureus VSSA, read-out: MIC; for MIC-fold improvement vs. vancomycin: VSSA, ratio of MIC of vancomycin and MIC of analogue
Outline: as §2

E. faecalis VSE 1 = assay: MIC, broth microdilution, vancomycin-sensitive E. faecalis (VSE 1); format: cell-based, Enterococcus faecalis; details: for MIC: Enterococcus faecalis VSE 1 (vancomycin-sensitive), read-out: MIC; for MIC-fold improvement vs. vancomycin: VSE 1, ratio of MIC of vancomycin and MIC of analogue
Outline: as §2

MIC-fold improvement vs. vancomycin (MRSA KS2)	MIC (MRSA KS2) [µM]	MIC-fold improvement vs. vancomycin (MRSA KS1)	MIC (MRSA KS1) [µM]	MIC (S. aureus VRSA) [µM]	MIC-fold improvement vs. vancomycin (S. aureus VRSA)	MIC (E. faecalis VRE 37) [µM]	MIC-fold improvement vs. vancomycin (E. faecalis VRE 37)	MIC-fold improvement vs. vancomycin (MRSA KS6)	MIC (MRSA KS6) [µM]	MIC (E. faecalis VRE 53) [µM]	MIC-fold improvement vs. vancomycin (E. faecalis VRE 53)	MIC (E. faecalis VRE 6) [µM]	MIC-fold improvement vs. vancomycin (E. faecalis VRE 6)	MIC (S. aureus VISA/HIP5827) [µM]	MIC-fold improvement vs. vancomycin (S. aureus VISA/HIP5827)	Compound	IC50 [1] [µM]	IC50 [2] [µM]	IC50 [3] [µM]	IC50 [4] [µM]	also measured
1	0.78 (≈ 1.26 µg/mL)	1	0.78 (≈ 1.26 µg/mL)	25 (≈ 40.4 µg/mL)	4	50 (≈ 80.9 µg/mL)	8	1	0.78 (≈ 1.26 µg/mL)	25 (≈ 40.4 µg/mL)	16	12.5 (≈ 20.2 µg/mL)	16	0.78 (≈ 1.26 µg/mL)	8	CN[C@H](CC(C)C)C(=O)N[C@H]1C(=O)N[C@@H](CC(N)=O)C(=O)N[C@H]2C(=O)N[C@H]3C(=O)N[C@H](C(=O)N[C@H](C(=O)NCC(=O)Nc4ccc(F)cc4F)c4cc(O)cc(O)c4-c4cc3ccc4O)[C@H](O)c3ccc(c(Cl)c3)Oc3cc2cc(c3O[C@@H]2O[C@H](CO)[C@@H](O)[C@H](O)[C@H]2O[C@H]2C[C@](C)(N)[C@H](O)[C@H](C)O2)Oc2ccc(cc2Cl)[C@H]1O [Vanc-16]	228	184 ± 60	> 250	> 250	MIC-fold improvement vs. vancomycin (MRSA KS89): 1; MIC (MRSA KS89): 0.78 µM (≈ 1.26 µg/mL); MIC (E. faecalis VRE 29): >50 µM; MIC-fold improvement vs. vancomycin (E. faecalis VRE 29): <8; MIC [5]: 0.78 µM (≈ 1.26 µg/mL); MIC-fold improvement vs. vancomycin [5]: 1; MIC (E. faecalis VSE 1): 0.78 µM (≈ 1.26 µg/mL); MIC-fold improvement vs. vancomycin (E. faecalis VSE 1): 2
4	0.20 (≈ 0.338 µg/mL)	8	0.10 (≈ 0.169 µg/mL)	1.56 (≈ 2.63 µg/mL)	64	1.56 (≈ 2.63 µg/mL)	256	0.5	1.56 (≈ 2.63 µg/mL)	12.5 (≈ 21.1 µg/mL)	32	1.56 (≈ 2.63 µg/mL)	128	0.39 (≈ 0.658 µg/mL)	16	CNC(CC(C)C)C(=O)NC1C(=O)NC(CC(N)=O)C(=O)NC2C(=O)NC3C(=O)NC(C(=O)NC(C(=O)NCC(=O)Nc4ccc(-c5ccc(OC)cc5)cc4)c4cc(O)cc(O)c4-c4cc3ccc4O)C(O)c3ccc(c(Cl)c3)Oc3cc2cc(c3OC2OC(CO)C(O)C(O)C2OC2CC(C)(N)C(O)C(C)O2)Oc2ccc(cc2Cl)C1O (centres unmarked) [Vanc-57]	17	41 ± 12	6.3 ± 0.2	3.7 ± 0.2	MIC-fold improvement vs. vancomycin (MRSA KS89): 2; MIC (MRSA KS89): 0.39 µM (≈ 0.658 µg/mL); MIC (E. faecalis VRE 29): 3.13 µM (≈ 5.28 µg/mL); MIC-fold improvement vs. vancomycin (E. faecalis VRE 29): 128; MIC [5]: 0.20 µM (≈ 0.338 µg/mL); MIC-fold improvement vs. vancomycin [5]: 4; MIC (E. faecalis VSE 1): ≤0.05 µM; MIC-fold improvement vs. vancomycin (E. faecalis VSE 1): ≥32
